According to US12378224B2 (Dong-A Socio Holdings Co., Ltd., priority 2016, dated 2025):

target: human MER (528-end) (Homo sapiens (Human), UniProt Q12866); assay: HTRF Kinase Activity Biochemical Assay (KinEASE-TK); conditions: 10 uM ATP
In short: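 Recombinant human MER (528-end) phosphorylated biotin-TK peptide substrate, 1 h at room temperature. Reaction stopped with detection buffer containing 0.375 nM Eu3+-cryptate anti-TK antibody and 0.062 uM streptavidin-XL665, 1 h further. Activity taken as HTRF ratio 665/620 nm ×10,000, 340 nm excitation.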

Chain of human MER (528-end) (Q12866 528-999 limits assumed): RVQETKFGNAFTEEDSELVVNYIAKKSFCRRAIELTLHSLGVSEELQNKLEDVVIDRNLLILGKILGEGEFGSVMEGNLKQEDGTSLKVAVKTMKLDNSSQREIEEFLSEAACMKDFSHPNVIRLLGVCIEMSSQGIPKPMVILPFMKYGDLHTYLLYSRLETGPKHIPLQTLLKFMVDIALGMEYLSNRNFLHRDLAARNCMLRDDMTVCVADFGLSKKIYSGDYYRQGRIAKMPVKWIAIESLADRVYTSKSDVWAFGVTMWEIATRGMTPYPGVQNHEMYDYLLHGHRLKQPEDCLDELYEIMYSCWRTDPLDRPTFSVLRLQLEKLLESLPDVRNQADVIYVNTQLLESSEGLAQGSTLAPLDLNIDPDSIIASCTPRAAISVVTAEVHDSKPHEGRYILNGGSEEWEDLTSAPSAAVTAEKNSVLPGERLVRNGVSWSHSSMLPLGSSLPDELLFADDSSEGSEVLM

Row | IC50 [nM] | SMILES
1 | > 1000 | CN1CCN(c2cccc(-c3cccc(C(=O)N4CC[C@@H](NC(=O)c5cc(-c6cnn(C)c6)cnc5N)C4)c3)c2)CC1 [Example 476, (R)-2-amino-5-(1-methyl-1H-pyrazol-4-yl)-N-(1-(3′-(4-methylpiperazin-1-yl)-[1,1′-biphenyl]-3-carbonyl)pyrrolidin-3-yl)nicotinamide]
2 | 10 to 100 | Cn1cc(-c2cnc(N)c(C(=O)N[C@@H]3CCN(C(=O)Nc4cccc(Oc5ccccc5)c4)C3)c2)cn1 [Example 17, (R)-2-amino-5-(1-methyl-1H-pyrazol-4-yl)-N-(1-((3-phenoxyphenyl)carbamoyl)pyrrolidin-3-yl)nicotinamide]
3 | > 1000 | Cn1cc(-c2cnc(N)c(C(=O)N[C@@H]3CCN(C(=O)c4ccc(CN5CCN(CCO)CC5)cc4)C3)c2)cn1 [Example 641, (R)-2-amino-N-(1-(4-((4-(2-hydroxyethyl)piperazin-1-yl)methyl)benzoyl)pyrrolidin-3-yl)-5-(1-methyl-1H-pyrazol-4-yl)nicotinamide]
4 | > 1000 | COc1cc(Br)ccc1OC(=O)N1CC[C@@H](NC(=O)c2cc(-c3cnn(C)c3)cnc2N)C1 [Example 63, 4-bromo-2-methoxyphenyl (R)-3-(2-amino-5-(1-methyl-1H-pyrazol-4-yl)nicotinamido)pyrrolidine-1-carboxylate]
5 | 100 to 1000 | CNc1ccc(-c2cccc(NC(=O)N3CC[C@@H](NC(=O)c4cc(-c5cnn(C)c5)cnc4N)C3)c2)cc1 [Example 262, (R)-2-amino-5-(1-methyl-1H-pyrazol-4-yl)-N-(1-((4′-(methylamino)-[1,1′-biphenyl]-3-yl)carbamoyl)pyrrolidin-3-yl)nicotinamide]
6 | > 1000 | Cn1cc(-c2cnc(N)c(C(=O)N[C@@H]3CCN(C(=O)Oc4cc5ccccc5cc4O)C3)c2)cn1 [Example 97, 3-hydroxynaphthalen-2-yl (R)-3-(2-amino-5-(1-methyl-1H-pyrazol-4-yl)nicotinamido)pyrrolidine-1-carboxylate]
7 | 10 to 100 | Cn1cc(-c2cnc(N)c(C(=O)N[C@@H]3CCN(C(=O)Nc4cccc(-c5cccc(CN)c5)c4)C3)c2)cn1 [Example 254, (R)-2-amino-N-(1-((3′-(aminomethyl)-[1,1′-biphenyl]-3-yl)carbamoyl)pyrrolidin-3-yl)-5-(1-methyl-1H-pyrazol-4-yl)nicotinamide]
8 | 100 to 1000 | Cn1cc(-c2cnc(N)c(C(=O)N[C@@H]3CCN(C(=O)c4ccc(-c5ccc(CN6CCC(N)CC6)cc5)cc4)C3)c2)cn1 [Example 547, (R)-2-amino-N-(1-(4′-((4-aminopiperidin-1-yl)methyl)-[1,1′-biphenyl]-4-carbonyl)pyrrolidin-3-yl)-5-(1-methyl-1H-pyrazol-4-yl)nicotinamide]
9 | 100 to 1000 | CN1CCN(Cc2ccc(/C=C/C(=O)N3CC[C@@H](NC(=O)c4cc(-c5cnn(C)c5)cnc4N)C3)cc2)CC1 [Example 429, (R,E)-2-amino-5-(1-methyl-1H-pyrazol-4-yl)-N-(1-(3-(4-((4-methylpiperazin-1-yl)methyl)phenyl)acryloyl)pyrrolidin-3-yl)nicotinamide]
10 | > 1000 | Cn1cc(-c2cnc(N)c(C(=O)N[C@@H]3CCN(C(=O)c4ccc(C#CCCO)cc4)C3)c2)cn1 [Example 553, (R)-2-amino-N-(1-(4-(4-hydroxybut-1-yn-1-yl)benzoyl)pyrrolidin-3-yl)-5-(1-methyl-1H-pyrazol-4-yl)nicotinamide]
11 | > 1000 | Cc1ccc(C(=O)N2CC[C@@H](NC(=O)c3cc(-c4cnn(C)c4)cnc3N)C2)cc1-c1ccccc1 [Example 482, (R)-2-amino-5-(1-methyl-1H-pyrazol-4-yl)-N-(1-(6-methyl-[1,1′-biphenyl]-3-carbonyl)pyrrolidin-3-yl)nicotinamide]
12 | 100 to 1000 | Cn1cc(-c2cnc(N)c(C(=O)N[C@@H]3CCN(C(=O)c4ccc(-c5ccccc5Cl)nc4)C3)c2)cn1 [Example 397, (R)-2-amino-N-(1-(6-(2-chlorophenyl)nicotinoyl)pyrrolidin-3-yl)-5-(1-methyl-1H-pyrazol-4-yl)nicotinamide]
13 | 100 to 1000 | Cn1cc(-c2cnc(N)c(C(=O)N[C@@H]3CCN(C(=O)Nc4cccc(-c5ccc(N)cc5)c4)C3)c2)cn1 [Example 258, (R)-2-amino-N-(1-((4′-amino-[1,1′-biphenyl]-3-yl)carbamoyl)pyrrolidin-3-yl)-5-(1-methyl-1H-pyrazol-4-yl)nicotinamide]
14 | > 1000 | CC(NCc1ccc(-c2cccc3c(C(=O)N4CC[C@@H](NC(=O)c5cc(-c6cnn(C)c6)cnc5N)C4)cccc23)cc1)C1CCN(C)CC1 (stereo partly shown) [Example 445]
15 | > 1000 | Cn1cc(-c2cnc(N)c(C(=O)N[C@@H]3CCN(C(=O)c4cccc(-c5cccnc5)c4)C3)c2)cn1 [Example 472, (R)-2-amino-5-(1-methyl-1H-pyrazol-4-yl)-N-(1-(3-(pyridin-3-yl)benzoyl)pyrrolidin-3-yl)nicotinamide]
16 | 100 to 1000 | Cn1cc(-c2cnc(N)c(C(=O)N[C@@H]3CCN(C(=O)Oc4ccc5ccccc5c4N)C3)c2)cn1 [Example 69, 1-aminonaphthalen-2-yl (R)-3-(2-amino-5-(1-methyl-1H-pyrazol-4-yl)nicotinamido)pyrrolidine-1-carboxylate]
17 | 100 to 1000 | Cn1cc(-c2cnc(N)c(C(=O)N[C@@H]3CCN(Cc4ccc(F)c(-c5cccc(CO)c5)c4)C3)c2)cn1 [Example 250, (R)-2-amino-N-(1-((6-fluoro-3′-(hydroxymethyl)-[1,1′-biphenyl]-3-yl)methyl)pyrrolidin-3-yl)-5-(1-methyl-1H-pyrazol-4-yl)nicotinamide]
18 | 100 to 1000 | Cn1cc(-c2cnc(N)c(C(=O)N[C@@H]3CCN(C(=O)c4ccc(-c5ccnc(N6CCNCC6)c5)cc4)C3)c2)cn1 [Example 491, (R)-2-amino-5-(1-methyl-1H-pyrazol-4-yl)-N-(1-(4-(2-(piperazin-1-yl)pyridin-4-yl)benzoyl)pyrrolidin-3-yl)nicotinamide]
19 | 10 to 100 | Cn1cc(-c2cnc(N)c(C(=O)N[C@@H]3CCN(C(=O)c4ccc(-c5cc(Cl)ccc5Cl)cc4)C3)c2)cn1 [Example 367, (R)-2-amino-N-(1-(2′,5′-dichloro-[1,1′-biphenyl]-4-carbonyl)pyrrolidin-3-yl)-5-(1-methyl-1H-pyrazol-4-yl)nicotinamide]

Row | SMILES | IC50 [nM]
20 | CN(C)CCNCc1ccc(-c2cccc(OC(=O)N3CC[C@@H](NC(=O)c4cc(-c5cnn(C)c5)cnc4N)C3)c2)cc1 [Example 308, 4′-(((2-(dimethylamino)ethyl)amino)methyl)-[1,1′-biphenyl]-3-yl (R)-3-(2-amino-5-(1-methyl-1H-pyrazol-4-yl)nicotinamido)pyrrolidine-1-carboxylate] | 100 to 1000
21 | Cn1cc(-c2cnc(N)c(C(=O)N[C@@H]3CCN(C(=O)Oc4cccc(-c5ccc(CNC[C@@H]6CCCN6)cc5)c4)C3)c2)cn1 [Example 312, 4′-(((((S)-pyrrolidin-2-yl)methyl)amino)methyl)-[1,1′-biphenyl]-3-yl (R)-3-(2-amino-5-(1-methyl-1H-pyrazol-4-yl)nicotinamido)pyrrolidine-1-carboxylate] | 100 to 1000
22 | C[C@H](CO)NCc1ccc(-c2cccc(OC(=O)N3CC[C@@H](NC(=O)c4cc(-c5cnn(C)c5)cnc4N)C3)c2)cc1 [Example 327, 4′-((((R)-1-hydroxypropan-2-yl)amino)methyl)-[1,1′-biphenyl]-3-yl (R)-3-(2-amino-5-(1-methyl-1H-pyrazol-4-yl)nicotinamido)pyrrolidine-1-carboxylate] | 100 to 1000
